# Results published in PubChem BioAssay AID1963869 (Molecular Pharmacology Branch, DTP, NCI, 2024).
# Test system: KRAS patient-derived spheroids with HUVEC/MSC, viability
# Test: Anticancer human tumor 323965-272-R-J2-PDC patient-derived pancreatic carcinoma cell line growth inhibition [KRAS2]
# Settings: for viability, T/C: stronger effect = lower value
# In short: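 KRAS-mutant tumor cells were grown as spheroids with HUVEC endothelial cells and human MSCs as stroma. Targeted agents were tested alone and with KRAS pathway inhibitors. Doses started at or near clinical Cmax, or 10 microM, descending half-log.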
# 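Further: spheroids exposed to agents for 7 days.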
# 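Wherever viability, T/C is given: 100% = DMSO vehicle control viability.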
compound,measurement,setting,value
CC1(C)CCC(CN2CCN(c3ccc(C(=O)NS(=O)(=O)c4ccc(NCC5CCOCC5)c([N+](=O)[O-])c4)c(Oc4cnc5[nH]ccc5c4)c3)CC2)=C(c2ccc(Cl)cc2)C1 + CNCc1ccccc1-c1csc(C(C)Nc2nc(C)nc3cc(OC)c(OC)cc23)c1,IC50,"curve of first compound, second compound 0.1 µM",1.82 µM
same,IC50,"curve of first compound, second compound 0.316 µM",1.68 µM
same,IC50,"curve of first compound, second compound 1 µM",1.91 µM
same,IC50,"curve of first compound, second compound 3.16 µM",1.43 µM
same,IC50,"curve of first compound, second compound 10 µM",< 0.0316 µM
same,"viability, T/C","second compound 0.1 µM, first compound 0.0316 µM",94.5%
same,"viability, T/C","second compound 0.1 µM, first compound 0.1 µM",94.2%
same,"viability, T/C","second compound 0.1 µM, first compound 0.316 µM",86.2%
same,"viability, T/C","second compound 0.1 µM, first compound 1 µM",87.8%
same,"viability, T/C","second compound 0.1 µM, first compound 3.16 µM",14.9%
same,"viability, T/C","second compound 0.1 µM, first compound 10 µM",5.18%
same,"viability, T/C","second compound 0.316 µM, first compound 0.0316 µM",83%
same,"viability, T/C","second compound 0.316 µM, first compound 0.1 µM",91.8%
same,"viability, T/C","second compound 0.316 µM, first compound 0.316 µM",92.5%
same,"viability, T/C","second compound 0.316 µM, first compound 1 µM",81.2%
same,"viability, T/C","second compound 0.316 µM, first compound 3.16 µM",12%
same,"viability, T/C","second compound 0.316 µM, first compound 10 µM",2.51%
same,"viability, T/C","second compound 1 µM, first compound 0.0316 µM",106%
same,"viability, T/C","second compound 1 µM, first compound 0.1 µM",104%
same,"viability, T/C","second compound 1 µM, first compound 0.316 µM",99.2%
same,"viability, T/C","second compound 1 µM, first compound 1 µM",94.8%
same,"viability, T/C","second compound 1 µM, first compound 3.16 µM",15.3%
same,"viability, T/C","second compound 1 µM, first compound 10 µM",1.65%
same,"viability, T/C","second compound 3.16 µM, first compound 0.0316 µM",104%
same,"viability, T/C","second compound 3.16 µM, first compound 0.1 µM",102%
same,"viability, T/C","second compound 3.16 µM, first compound 0.316 µM",98.7%
same,"viability, T/C","second compound 3.16 µM, first compound 1 µM",71.3%
same,"viability, T/C","second compound 3.16 µM, first compound 3.16 µM",1.61%
same,"viability, T/C","second compound 3.16 µM, first compound 10 µM",1.05%
same,"viability, T/C","second compound 10 µM, first compound 0.0316 µM",0.23%
same,"viability, T/C","second compound 10 µM, first compound 0.1 µM",0.28%
same,"viability, T/C","second compound 10 µM, first compound 0.316 µM",0.27%
same,"viability, T/C","second compound 10 µM, first compound 1 µM",0.19%
same,"viability, T/C","second compound 10 µM, first compound 3.16 µM",0.14%
same,"viability, T/C","second compound 10 µM, first compound 10 µM",0.18%
CC1(C)CCC(CN2CCN(c3ccc(C(=O)NS(=O)(=O)c4ccc(NCC5CCOCC5)c([N+](=O)[O-])c4)c(Oc4cnc5[nH]ccc5c4)c3)CC2)=C(c2ccc(Cl)cc2)C1,"viability, T/C",compound 0.0316 µM,100% [middle of 5 runs]
same,"viability, T/C",compound 0.1 µM,94.9% [middle of 5 runs]
same,"viability, T/C",compound 0.316 µM,98% [middle of 5 runs]
same,"viability, T/C",compound 1 µM,96.1% [middle of 5 runs]
same,"viability, T/C",compound 3.16 µM,21% [middle of 5 runs]
same,"viability, T/C",compound 10 µM,7.62% [middle of 5 runs]
same,IC50,curve of compound,1.99 µM [middle of 5 runs]
